In ChEMBL document CHEMBL4715760, “Balancing potency, metabolic stability and permeability in pyrrolopyrimidine-based EGFR inhibitors” (Eur J Med Chem, 2016):

Tests used:
[1] = target: Serine/threonine-protein kinase B-raf (Homo sapiens) (UniProt P15056); assay: Inhibition of recombinant human GST-tagged full length BRAF expressed in baculovirus expression system at 500 nM using Ser/Thr 03 peptide as substrate incubated for 1 hr in presence of 100 uM ATP by Z'-LYTE assay relative to control
[2] = target: Mitogen-activated protein kinase 8 (Homo sapiens) (UniProt P45983); assay: Inhibition of recombinant human His tagged human MAPK8 expressed in baculovirus expression system at 500 nM using Ser/Thr 04 as substrate incubated for 1 hr in presence of 100 uM ATP by Z'-LYTE assay relative to control
[3] = target: cAMP-dependent protein kinase catalytic subunit alpha (Homo sapiens) (UniProt P17612); assay: Inhibition of recombinant human His-tagged PRKACA (1 to 351 residues) expressed in Escherichia coli expression system at 500 nM using Ser/Thr 01 as substrate incubated for 1 hr in presence of ATP at its Km concentration by Z'-LYTE assay relative to control
[4] = target: Protein kinase C beta type (Homo sapiens) (UniProt P05771); assay: Inhibition of human full length GST tagged PRKCB1 expressed in insect cells at 500 nM using Ser/Thr 07 as substrate incubated for 1 hr in presence of ATP at its Km concentration by Z'-LYTE assay relative to control
[5] = target: Tyrosine-protein kinase Fer (Homo sapiens) (UniProt P16591); assay: Inhibition of recombinant human GST-tagged FER (541 to 822 residues) expressed in baculovirus expression system at 500 nM using Tyr 05 peptide as substrate incubated for 1 hr in presence of ATP at its Km concentration by Z'-LYTE assay relative to control
[6] = target: Tyrosine-protein kinase Blk (Homo sapiens) (UniProt P51451); assay: Inhibition of recombinant human His-tagged full length BLK expressed in baculovirus expression system at 500 nM using Tyr 01 peptide as substrate incubated for 1 hr in presence of ATP at its Km concentration by Z'-LYTE assay relative to control
[7] = target: Protein kinase C theta type (Homo sapiens) (UniProt Q04759); assay: Inhibition of recombinant human His-tagged full length PRKCQ expressed in baculovirus expression system at 500 nM using Ser/Thr 07 as substrate incubated for 1 hr in presence of ATP at its Km concentration by Z'-LYTE assay relative to control
[8] = target: Platelet-derived growth factor receptor beta (Homo sapiens) (UniProt P09619); assay: Inhibition of recombinant human His-tagged PDGFRbeta cytoplasmic domain expressed in baculovirus expression system at 500 nM using Tyr 04 as substrate incubated for 1 hr in presence of ATP at its Km concentration by Z'-LYTE assay relative to control
[9] = target: Ephrin type-A receptor 2 (Homo sapiens) (UniProt P29317); assay: Inhibition of recombinant human GST-tagged EPHA2 cytoplasmic domain expressed in baculovirus expression system at 500 nM using Tyr 01 peptide as substrate incubated for 1 hr in presence of ATP at its Km concentration by Z'-LYTE assay relative to control
[10] = target: Glycogen synthase kinase-3 beta (Homo sapiens) (UniProt P49841); assay: Inhibition of recombinant full-length human His-tagged GSK3beta expressed in baculovirus expression system at 500 nM using Ser/Thr 09 as substrate incubated for 1 hr in presence of ATP at its Km concentration by Z'-LYTE assay relative to control
[11] = target: T1, Serine/threonine-protein kinase Nek1 (Homo sapiens) (UniProt Q96PY6); assay: Inhibition of recombinant human GST-tagged NEK1 (1 to 505 residues) expressed in baculovirus expression system at 500 nM using Ser/Thr 07 as substrate incubated for 1 hr in presence of ATP at its Km concentration by Z'-LYTE assay relative to control
T1 sequence (whole entry): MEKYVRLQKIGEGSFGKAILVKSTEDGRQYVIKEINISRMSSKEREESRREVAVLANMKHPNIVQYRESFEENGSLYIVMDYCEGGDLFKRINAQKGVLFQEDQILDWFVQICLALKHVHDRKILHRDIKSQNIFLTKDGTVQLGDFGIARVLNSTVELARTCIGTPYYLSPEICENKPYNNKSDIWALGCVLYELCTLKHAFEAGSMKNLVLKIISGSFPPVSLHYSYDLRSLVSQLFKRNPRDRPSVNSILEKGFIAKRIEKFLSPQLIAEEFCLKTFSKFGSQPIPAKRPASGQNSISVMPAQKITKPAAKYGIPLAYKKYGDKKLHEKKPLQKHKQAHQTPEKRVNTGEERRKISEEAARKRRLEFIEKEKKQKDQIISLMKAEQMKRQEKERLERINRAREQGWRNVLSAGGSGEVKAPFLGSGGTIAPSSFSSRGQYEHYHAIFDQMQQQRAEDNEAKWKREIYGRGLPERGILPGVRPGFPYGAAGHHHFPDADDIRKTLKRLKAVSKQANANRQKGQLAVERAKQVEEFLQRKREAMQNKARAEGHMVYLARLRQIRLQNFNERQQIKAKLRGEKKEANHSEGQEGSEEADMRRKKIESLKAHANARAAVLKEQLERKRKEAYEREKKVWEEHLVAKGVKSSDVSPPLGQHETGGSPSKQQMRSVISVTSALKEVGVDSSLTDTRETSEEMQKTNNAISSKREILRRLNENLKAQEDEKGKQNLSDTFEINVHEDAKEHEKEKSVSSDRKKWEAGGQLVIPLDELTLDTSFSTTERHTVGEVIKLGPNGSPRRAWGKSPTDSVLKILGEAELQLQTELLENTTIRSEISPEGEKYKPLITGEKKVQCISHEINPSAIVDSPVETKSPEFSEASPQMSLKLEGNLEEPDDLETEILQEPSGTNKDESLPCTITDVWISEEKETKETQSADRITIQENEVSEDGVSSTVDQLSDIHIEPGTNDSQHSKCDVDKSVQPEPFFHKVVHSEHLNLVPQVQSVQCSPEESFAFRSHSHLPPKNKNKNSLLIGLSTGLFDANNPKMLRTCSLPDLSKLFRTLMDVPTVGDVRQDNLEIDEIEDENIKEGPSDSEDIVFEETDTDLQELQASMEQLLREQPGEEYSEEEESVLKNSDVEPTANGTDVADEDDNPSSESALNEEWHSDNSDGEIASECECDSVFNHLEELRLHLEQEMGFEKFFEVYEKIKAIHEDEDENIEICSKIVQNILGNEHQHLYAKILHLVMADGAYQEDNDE

Protein kinase C theta type (Homo sapiens), sequence (Q04759 whole entry, looked up, the tested form may be a part): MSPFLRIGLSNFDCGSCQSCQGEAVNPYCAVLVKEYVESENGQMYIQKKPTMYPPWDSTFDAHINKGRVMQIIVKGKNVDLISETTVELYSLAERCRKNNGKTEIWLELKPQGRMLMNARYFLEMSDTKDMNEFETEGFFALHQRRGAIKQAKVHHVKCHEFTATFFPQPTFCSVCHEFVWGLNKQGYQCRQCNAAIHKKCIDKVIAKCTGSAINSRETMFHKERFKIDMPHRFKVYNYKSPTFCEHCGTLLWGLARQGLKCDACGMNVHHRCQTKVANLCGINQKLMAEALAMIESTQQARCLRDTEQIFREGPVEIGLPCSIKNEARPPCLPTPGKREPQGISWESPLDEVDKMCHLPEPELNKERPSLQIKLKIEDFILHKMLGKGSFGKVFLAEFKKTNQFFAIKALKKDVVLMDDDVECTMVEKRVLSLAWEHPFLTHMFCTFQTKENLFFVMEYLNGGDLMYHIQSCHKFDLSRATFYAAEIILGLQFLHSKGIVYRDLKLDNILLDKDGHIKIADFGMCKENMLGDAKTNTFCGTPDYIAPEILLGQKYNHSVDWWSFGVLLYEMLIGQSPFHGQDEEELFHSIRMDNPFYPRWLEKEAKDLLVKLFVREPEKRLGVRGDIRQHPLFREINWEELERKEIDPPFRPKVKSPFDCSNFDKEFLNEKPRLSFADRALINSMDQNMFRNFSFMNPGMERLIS
Glycogen synthase kinase-3 beta (Homo sapiens), sequence (P49841 whole entry, looked up, the tested form may be a part): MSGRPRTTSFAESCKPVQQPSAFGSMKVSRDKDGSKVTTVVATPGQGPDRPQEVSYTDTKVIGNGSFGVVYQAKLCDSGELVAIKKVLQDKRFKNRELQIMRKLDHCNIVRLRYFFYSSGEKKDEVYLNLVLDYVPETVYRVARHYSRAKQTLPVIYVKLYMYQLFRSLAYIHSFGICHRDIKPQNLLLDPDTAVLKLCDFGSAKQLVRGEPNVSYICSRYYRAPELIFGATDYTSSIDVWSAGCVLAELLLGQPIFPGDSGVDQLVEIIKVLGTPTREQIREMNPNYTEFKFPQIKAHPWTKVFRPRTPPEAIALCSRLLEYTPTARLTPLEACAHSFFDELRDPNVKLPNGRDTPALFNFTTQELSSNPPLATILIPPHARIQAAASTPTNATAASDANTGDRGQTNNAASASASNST
Mitogen-activated protein kinase 8 (Homo sapiens), sequence (P45983 whole entry, the tested form may be a part): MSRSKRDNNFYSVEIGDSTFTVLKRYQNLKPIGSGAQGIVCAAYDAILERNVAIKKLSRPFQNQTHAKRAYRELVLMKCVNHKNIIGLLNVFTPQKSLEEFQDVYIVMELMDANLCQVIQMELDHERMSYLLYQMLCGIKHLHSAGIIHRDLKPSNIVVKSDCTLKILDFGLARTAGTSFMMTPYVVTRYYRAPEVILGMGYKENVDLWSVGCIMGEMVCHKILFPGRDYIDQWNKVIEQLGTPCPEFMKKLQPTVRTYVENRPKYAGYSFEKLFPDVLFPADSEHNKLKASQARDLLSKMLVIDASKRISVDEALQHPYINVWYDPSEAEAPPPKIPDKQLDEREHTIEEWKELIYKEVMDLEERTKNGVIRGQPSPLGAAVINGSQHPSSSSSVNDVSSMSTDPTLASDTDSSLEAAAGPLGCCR
Platelet-derived growth factor receptor beta (Homo sapiens), sequence (P09619 whole entry, the tested form may be a part): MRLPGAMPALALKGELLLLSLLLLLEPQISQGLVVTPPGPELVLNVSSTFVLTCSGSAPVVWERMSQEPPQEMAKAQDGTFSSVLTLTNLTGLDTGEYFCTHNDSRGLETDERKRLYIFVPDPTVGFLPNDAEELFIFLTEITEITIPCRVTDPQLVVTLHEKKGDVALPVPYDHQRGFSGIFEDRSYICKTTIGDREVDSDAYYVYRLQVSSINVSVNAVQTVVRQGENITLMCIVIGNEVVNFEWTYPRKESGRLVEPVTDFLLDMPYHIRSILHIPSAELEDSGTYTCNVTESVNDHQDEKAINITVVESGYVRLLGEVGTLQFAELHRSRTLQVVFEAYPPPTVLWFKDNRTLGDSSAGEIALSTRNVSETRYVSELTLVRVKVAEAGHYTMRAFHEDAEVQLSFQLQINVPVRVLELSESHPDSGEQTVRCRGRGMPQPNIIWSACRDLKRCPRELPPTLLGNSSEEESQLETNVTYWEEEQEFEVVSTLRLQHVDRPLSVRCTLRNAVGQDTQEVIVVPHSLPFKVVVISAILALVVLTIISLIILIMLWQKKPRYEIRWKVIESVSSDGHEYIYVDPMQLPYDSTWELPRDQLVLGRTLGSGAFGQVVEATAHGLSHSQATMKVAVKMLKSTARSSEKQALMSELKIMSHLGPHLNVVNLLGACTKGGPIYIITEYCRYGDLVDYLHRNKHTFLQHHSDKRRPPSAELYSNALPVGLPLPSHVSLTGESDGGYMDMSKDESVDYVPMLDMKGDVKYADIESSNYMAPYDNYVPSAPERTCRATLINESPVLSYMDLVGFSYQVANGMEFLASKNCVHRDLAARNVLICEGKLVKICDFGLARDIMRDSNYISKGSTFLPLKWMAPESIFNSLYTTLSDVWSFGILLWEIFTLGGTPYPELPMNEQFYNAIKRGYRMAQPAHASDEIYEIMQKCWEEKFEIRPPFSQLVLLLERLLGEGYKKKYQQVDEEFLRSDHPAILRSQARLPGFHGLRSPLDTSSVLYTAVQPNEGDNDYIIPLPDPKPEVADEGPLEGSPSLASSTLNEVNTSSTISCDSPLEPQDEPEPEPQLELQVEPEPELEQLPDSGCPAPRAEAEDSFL
Ephrin type-A receptor 2 (Homo sapiens), sequence (P29317 whole entry, the tested form may be a part): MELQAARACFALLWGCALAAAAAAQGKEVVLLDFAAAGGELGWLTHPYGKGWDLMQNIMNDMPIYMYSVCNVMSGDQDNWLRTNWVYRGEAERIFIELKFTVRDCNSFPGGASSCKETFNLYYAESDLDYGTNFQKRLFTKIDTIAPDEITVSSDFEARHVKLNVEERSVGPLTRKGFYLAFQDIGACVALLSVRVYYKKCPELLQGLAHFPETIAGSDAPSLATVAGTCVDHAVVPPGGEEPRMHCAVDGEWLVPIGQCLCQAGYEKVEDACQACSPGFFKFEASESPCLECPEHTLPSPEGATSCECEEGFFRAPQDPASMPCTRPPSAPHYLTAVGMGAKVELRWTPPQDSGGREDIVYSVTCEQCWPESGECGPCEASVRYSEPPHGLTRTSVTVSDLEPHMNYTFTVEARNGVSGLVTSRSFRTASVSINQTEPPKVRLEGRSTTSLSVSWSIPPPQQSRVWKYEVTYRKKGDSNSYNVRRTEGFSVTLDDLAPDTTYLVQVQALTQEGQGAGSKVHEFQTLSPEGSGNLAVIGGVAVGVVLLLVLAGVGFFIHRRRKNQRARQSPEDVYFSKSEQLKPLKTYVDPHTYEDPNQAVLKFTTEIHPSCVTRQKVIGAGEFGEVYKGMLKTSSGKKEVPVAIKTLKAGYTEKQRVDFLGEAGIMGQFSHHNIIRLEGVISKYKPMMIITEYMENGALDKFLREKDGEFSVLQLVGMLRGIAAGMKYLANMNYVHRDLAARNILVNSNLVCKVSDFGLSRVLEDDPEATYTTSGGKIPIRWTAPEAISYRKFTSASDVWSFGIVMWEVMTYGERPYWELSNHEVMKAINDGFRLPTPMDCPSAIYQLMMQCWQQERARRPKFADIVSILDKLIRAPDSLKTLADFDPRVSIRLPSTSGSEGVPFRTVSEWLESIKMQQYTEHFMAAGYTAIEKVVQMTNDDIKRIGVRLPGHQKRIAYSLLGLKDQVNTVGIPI
Protein kinase C beta type (Homo sapiens), sequence (P05771 2-671 limits assumed): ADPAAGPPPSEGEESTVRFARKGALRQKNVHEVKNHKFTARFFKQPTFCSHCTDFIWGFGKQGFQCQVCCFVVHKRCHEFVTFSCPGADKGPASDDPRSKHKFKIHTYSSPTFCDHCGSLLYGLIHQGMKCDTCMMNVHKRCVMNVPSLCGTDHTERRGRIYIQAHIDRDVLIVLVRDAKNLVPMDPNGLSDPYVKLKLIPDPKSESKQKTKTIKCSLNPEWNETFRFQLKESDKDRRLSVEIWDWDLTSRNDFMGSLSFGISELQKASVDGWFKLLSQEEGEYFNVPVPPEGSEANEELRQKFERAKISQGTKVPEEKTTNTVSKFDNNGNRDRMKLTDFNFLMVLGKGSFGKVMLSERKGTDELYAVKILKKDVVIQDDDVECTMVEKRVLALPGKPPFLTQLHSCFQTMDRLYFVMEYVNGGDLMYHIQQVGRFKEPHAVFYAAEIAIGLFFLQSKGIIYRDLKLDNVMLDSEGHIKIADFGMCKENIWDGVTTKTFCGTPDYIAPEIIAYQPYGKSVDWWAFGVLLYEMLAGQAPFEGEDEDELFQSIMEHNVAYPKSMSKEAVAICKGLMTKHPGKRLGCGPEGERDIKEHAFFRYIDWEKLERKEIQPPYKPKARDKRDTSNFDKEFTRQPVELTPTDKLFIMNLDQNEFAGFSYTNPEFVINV
Tyrosine-protein kinase Blk (Homo sapiens), sequence (P51451 2-505 limits assumed): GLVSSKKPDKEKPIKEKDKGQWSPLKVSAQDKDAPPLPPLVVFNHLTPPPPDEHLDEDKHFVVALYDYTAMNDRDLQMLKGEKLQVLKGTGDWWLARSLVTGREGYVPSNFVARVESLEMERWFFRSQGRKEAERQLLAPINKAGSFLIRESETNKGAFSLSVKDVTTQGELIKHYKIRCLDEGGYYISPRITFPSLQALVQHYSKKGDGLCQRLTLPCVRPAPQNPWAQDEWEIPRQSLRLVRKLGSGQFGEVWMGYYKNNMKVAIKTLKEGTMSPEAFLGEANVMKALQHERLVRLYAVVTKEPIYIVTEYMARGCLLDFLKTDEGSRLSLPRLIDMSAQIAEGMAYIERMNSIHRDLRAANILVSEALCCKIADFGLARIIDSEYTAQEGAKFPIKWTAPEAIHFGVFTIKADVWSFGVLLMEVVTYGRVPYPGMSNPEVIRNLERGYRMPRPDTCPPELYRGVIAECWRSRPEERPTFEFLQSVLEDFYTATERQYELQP

| SMILES | inhibition [1] [%] | inhibition [2] [%] | inhibition [3] [%] | inhibition [4] [%] | inhibition [5] [%] | inhibition [6] [%] | inhibition [7] [%] | inhibition [8] [%] | inhibition [9] [%] | inhibition [10] [%] | inhibition [11] [%] |
| --- | --- | --- | --- | --- | --- | --- | --- | --- | --- | --- | --- |
| CCOc1ccccc1-c1cc2c(N[C@H](CO)c3ccccc3)ncnc2[nH]1 | 7 | 17 | 6 | 15 | 12 | 14 | 2 | 8 | 21 | 13 | 8 |
| C#Cc1cccc(Nc2ncnc3cc(OCCOC)c(OCCOC)cc23)c1 [ERLOTINIB] | 3 | 32 | -10 | -2 | -1 | 38 | -4 | -5 | 11 | -8 | -8 |
| OC[C@@H](Nc1ncnc2[nH]c(-c3ccccc3)cc12)c1ccccc1 | -2 | 0 | 1 | 1 | 6 | 33 | 12 | -1 | 16 | 8 | 0 |
| COc1ccccc1-c1cc2c(N[C@H](CO)c3ccccc3)ncnc2[nH]1 | 4 | 7 | -1 | 8 | 7 | 29 | 5 | 0 | 7 | 6 | 1 |
| CN(C)CCNCc1ccc(-c2cc3c(N[C@H](CO)c4ccccc4)ncnc3[nH]2)cc1F | -4 | 19 | 4 | 17 | 7 | 22 | 1 | 10 | 54 | 8 | 15 |
| OCC[C@@H](Nc1ncnc2[nH]c(-c3ccccc3)cc12)c1ccccc1 | -3 | 27 | 7 | 6 | 10 | 17 | 5 | 11 | 23 | 8 | 13 |
